Measurements as given in US8673929B2, “4,6-di- and 2,4,6-trisubstituted quinazoline derivatives and pharmaceutical compositions useful for treating viral infections” (priority 2006, dated 2014).

Experiments:
[1] = target: HCV replicon; test: Anti-HCV replicon assay, EC50 (luciferase readout); format: cell-based; settings: Huh-7 HCV replicon cells, 3 days incubation, luciferase luminescence
Procedure: (§1) The anti HCV activity of the quinazoline derivatives of this invention was tested in a human hepatoma Huh-7 cell line harbouring a HCV replicon. The assay comprised the following steps:
(§2) Step 1: compound preparation and serial dilution • 1. for water soluble quinazoline derivatives, a volume of 500 μL of solution in cell media (DMEM, 10% FBS, P/S, L-Glutamine) was prepared with a concentration being twice the concentration of the starting final serial dilution concentration. A volume of 150 μL of the solution was added to the pre-specified wells in column 1 of a 96-well cell culture plate (PerkinElmer, white plate, cat. #6005181, for EC50 assay; black plate, cat. #6005182 for CC50 assay). The rest of the plate, columns 2-12, was filled with 100 μL of cell media. The plate was then placed on a Precision 2000 Workstation to start the serial dilution. Compounds were diluted three times each step from column 1 to column 10. Column 11 was used as a blank control (no compound added). • 2. for quinazoline derivatives requiring DMSO to dissolve, serial dilution is performed in 50% DMSO in a 384-well plate. A solution containing a compound at 100-fold concentration of the starting final serial dilution concentration was prepared in 50% DMSO and added to the pre-specified wells in column 1 of a polypropylene 384-well plate. The plate was then placed on a Precision 2000 Workstation to start the serial dilution. After the serial dilution, a volume of 2 μL of the solution was transferred from the 384-well plate to a 96-well cell culture plate containing 100 μL of cell media on a Biomek FX Workstation. The DMSO concentration in the final assay condition was 0.5% after cells are added to the plate and the total volume in each well is brought to 200 μL.
(§3) Step 2: to each well of the serial dilution plate prepared above, 100 μL of cell media containing 6000 suspended Huh-7 HCV replicon cells was added with a Multidrop workstation. The plates were incubated for 3 days at 37° C. with 5% CO2.
(§4) Step 3: detection: • a) for the EC50 assay, the media in a 96-well cell culture plate was aspirated with a Biotek EL405 plate-washer. A volume of 200 μL of a solution containing a 1:1 mixture of cell-lysis buffer (Promega, Luciferase Cell Culture Lysis 5× Reagent, cat. #E1531) and luciferase substrate solution (Promega, Luciferase Assay, cat.# E4550) was added to each well of the plate with Multidrop. The plate was incubated for 30 minutes at room temperature before the luminescence signal was measured with a TopCount plate-reader. • b) for the CC50 assay, a volume of 100 μL of pre-mixed CellTiter-Glo (Promega, cat.# G7572) solution is added directly to the cell culture in each well of the plate and the luminescence signal is measured with a TopCount plate-reader after 10 minutes of incubation at room temperature.
(§5) Results in the table below are expressed by the following data: • the 50% cytostatic concentration (CC50), i.e. the concentration that results in 50% inhibition of cell growth, and • the 50% effective concentration (EC50), i.e. the concentration that […].

[2] = CC50 assay in the anti-HCV replicon assay (CellTiter-Glo); format: cell-based, human; settings: human, Huh-7 hepatoma cells harbouring an HCV replicon; Huh-7 HCV replicon cells, 3 days incubation, CellTiter-Glo luminescence
Procedure: as §1, §2, §3, §4, §5

Row | Molecule | EC50 [1] [µM] | EC50 ([1]; Hepatitis C virus, 72 h) [µM] | CC50 at 3 days [2] [µM]
1 | 4-(4-(2-methmethoxy)-quinazolin-6-yl)-N-methyl-benzamide [Example 246] | 1 to 10 | – | –
2 | COc1ccc(-c2ccc3nc(N)nc(OC(C)C)c3c2)cc1OC [Example 18, 2-amino-6-(3,4-dimethoxyphenyl)-4-isopropoxy-quinazoline] | – | < 0.3 | < 10
3 | CCOc1nc(N)nc2ccc(-c3ccc(F)cc3)cc12 [Example 19, 2-amino-4-ethoxy-6-(4-fluorophenyl)-quinazoline] | – | 1 to 10 | > 20
4 | COCCOc1nc(N)nc2ccc(-c3ccc(F)cc3)cc12 [Example 20, 2-amino-6-(4-fluorophenyl)-4-(2-methoxyethoxy)-quinazoline] | – | 1 to 10 | 10 to 20
5 | CC(C)Oc1nc(N)nc2ccc(-c3ccc(F)cc3)cc12 [Example 21, 2-amino-6-(4-fluorophenyl)-4-isopropoxy-quinazoline] | – | 1 to 10 | > 20
6 | Nc1nc(OCC(F)(F)F)c2cc(-c3ccc(F)cc3)ccc2n1 [Example 26, 2-amino-6-(4-fluorophenyl)-4-(2,2,2-trifluoroethoxy)-quinazoline] | – | 1 to 10 | 10 to 20
7 | CC(=O)Nc1ccc(-c2ccc3nc(N)nc(OC(C)C)c3c2)cc1 [Example 27, 2-amino-6-(4-acetamidophenyl)-4-isopropoxy-quinazoline] | – | 0.3 to 1 | > 20
8 | COCCOc1nc(N)nc2ccc(-c3ccc(NC(C)=O)cc3)cc12 [Example 28, 2-amino-6-(4-acetamidophenyl)-4-(2-methoxyethoxy)-quinazoline] | – | 0.3 to 1 | 10 to 20
9 | CC(=O)Nc1ccc(-c2ccc3nc(N)nc(OCCN4CCOCC4)c3c2)cc1 [Example 29, 2-amino-6-(4-acetamidophenyl)-4-[2-(4-morpholinyl)ethoxy]-quinazoline] | – | 0.3 to 1 | > 20
10 | CCOc1nc(N)nc2ccc(-c3ccc(NC(C)=O)cc3)cc12 [Example 30, 2-amino-6-(4-acetamidophenyl)-4-ethoxy-quinazoline] | – | 0.3 to 1 | > 20
11 | CC(=O)Nc1ccc(-c2ccc3nc(N)nc(OCC4CC4)c3c2)cc1 [Example 31, 2-amino-6-(4-acetamidophenyl)-4-(cyclopropyl-methoxy)-quinazoline] | – | 0.3 to 1 | > 20
12 | CC(=O)Nc1ccc(-c2ccc3nc(N)nc(OCC(F)(F)F)c3c2)cc1 [Example 32, 2-amino-6-(4-acetamidophenyl)-4-(2,2,2-trifluoroethoxy)-quinazoline] | – | 0.3 to 1 | > 20
13 | CCOc1ncnc2ccc(-c3ccc(F)cc3)cc12 [Example 34, 4-ethoxy-6-(4-fluorophenyl)-quinazoline] | – | 0.3 to 1 | > 20
14 | COCCOc1ncnc2ccc(-c3ccc(F)cc3)cc12 [Example 35, 4-(2-methoxyethoxy)-6-(4-fluorophenyl)-quinazoline] | – | 1 to 10 | > 20
15 | CCOc1nc(N)nc2ccc(-c3cccc(F)c3F)cc12 [Example 38] | – | 1 to 10 | 10 to 20
16 | CCOc1nc(N)nc2ccc(-c3ccc(C)cc3)cc12 [Example 39, 4-Ethoxy-6-p-tolyl-quinazolin-2-ylamine] | – | 1 to 10 | > 20
17 | CCOc1nc(N)nc2ccc(-c3ccoc3)cc12 [Example 40, 4-Ethoxy-6-furan-3-yl-quinazolin-2-ylamine] | – | 1 to 10 | > 20
18 | CCOc1nc(N)nc2ccc(-c3ccn[nH]3)cc12 [Example 41, 4-Ethoxy-6-(2H-pyrazol-3-yl)-quinazolin-2-ylamine] | – | 1 to 10 | > 20
19 | CCOc1nc(N)nc2ccc(-c3cccs3)cc12 [Example 42, 4-Ethoxy-6-thiophen-2-yl-quinazolin-2-ylamine] | – | 1 to 10 | < 10
20 | CCOc1nc(N)nc2ccc(-c3ccc(C(=O)NC)cc3)cc12 [Example 43, 4-(2-Amino-4-ethoxy-quinazolin-6-yl)-N-methyl-benzamide] | – | < 0.3 | > 20
